Assay results reported in patent US5128345A, “Carcinostatic composition comprising indolquinolines” (Mect Corporation, priority 1988, dated 1992).

Tests used:
[1] = system: KB cells; assay: Test for inhibiting multiplication/growth of KB cells (in vitro); type: cell-based, Human; settings: compound added Day 1, cells counted Day 4, 37° C., 5% CO2, 50% inhibition rate, 4320 min
Description: 1) Function for Inhibiting Multiplication of KB-1 Cell (in vitro test)
KB cells, carcinomatous cell tumors, were transferred to in vitro floatation incubator systems, and added respectively with the Compounds (1), (2) and (3). The results of cultivation added with the Compounds (1), (2) and (3) were compared with the result of the control which was not added with any compound.
Cell used: KB Cell (Originating from Human Mouth Epidermal Cancer),
Culture medium: Eagles Minimal Essential Medium supplemented with 10% Calf Serum,
Cultivation: 37° C. Carbon dioxide Gas incubator (5% CO2).
KB cells were diluted in the culture medium to adjust the KB cell density to 2 x 10^4 /ml.
Three ml of the cell suspension was inoculated in each of 60 mm plastic dishes.
Two dishes per standard dosage were used.
Test compound was added to the medium so that the final concentrations were set to 100, 30, 10, 3 and 1 μg/ml.
Cells were scraped off from the dish using trypsin, and the cell number was countered using a Corter counter.
In general accordance with the stipulations set forth by the National Cancer Institute (NCI), U.S.A., the concentration of compound necessary for exerting 50% growth inhibition (ED50) compared to the control was determined.

[2] = system: P-388; assay: Prolongation of life span in P-388 cancer implanted mouse (in vivo); parameters: species or system CDF Mouse; settings: Day 1 and Day 5, P-388 inoculated i.p., 10^6 cells/mouse
Description: Effect on Prolongation of Life Span in Cancer implanted Mouse and Acute Toxicity
Pharmacological effects of the compounds as used in Test Example 1 were tested in vivo using P-388 implanted mice.
Animal Used: CDF Mouse (6 mice/group),
Number of Inowlated Cells: 10^6 cells/mouse,
Day of Administration: Day 1 and Day 5,
Dosage: LD50 or 400 mg/kg/day at the maximum.
The treatment was judged as effective when the ratio of survival of the treated group to that of the control group (T/C %) was 120% or more. The survival period of the control group was generally about 10 days.

[3] = J. Med. Chem., vol. 17, 922 (1974); among acridines with the 9-position alkylamino group replaced; cited from earlier work

Structure (SMILES) | ED50: concentration of compound necessary for exerting 50% growth inhibition compared to the control (Concentration at Inhibition Rate 50%) [1] | Ratio of Life Prolongation (T/C %) ([2]; 100 mg/kg) | Ratio of Life Prolongation (T/C %) ([2]; 200 mg/kg) | also measured
COc1cc(NS(C)(=O)=O)ccc1Nc1c2ccccc2nc2c1[nH]c1ccccc12 [Compound 1] | 0.3 µg/mL |  |  | Ratio of Life Prolongation (T/C %) ([2]; 6.25 mg/kg): 300%; Ratio of Life Prolongation (T/C %) ([2]; 12.5 mg/kg): 203%; Ratio of Life Prolongation (T/C %) ([2]; 25 mg/kg): 111%
COc1cc(NS(C)(=O)=O)ccc1Nc1c2ccccc2nc2ccccc12 [Amsacrine, N-(4-(9-acridylamino)-3-methoxyphenyl)methanesulfonamide] |  |  |  | carcinostatic function [3]: highest carcinostatiac function
COc1cc(NS(C)(=O)=O)ccc1Nc1c2ccccc2nc2c1ccc1ccccc12 [Compound 3] |  | 163% | 204% | Ratio of Life Prolongation (T/C %) ([2]; 50 mg/kg): 157%
COc1cc(NS(C)(=O)=O)ccc1Nc1c2ccccc2nc2cc3ccccc3cc12 [Compound 2, N-(4-((benzo(b)acridine-12yl)amino)-3-methoxyphenyl)methanesulfonamide] | 1.15 µg/mL | 122% | 130% | Ratio of Life Prolongation (T/C %) ([2]; 400 mg/kg): 130%
